Laboratory results: the supplement of paper PMC11061612

Legend:
COLO-679 (Melanoma) = assay: Bliss excess, mean over the matrix (fraction); higher = more synergy
Summary of the method: (§1)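 Cell lines in DMEM/F12 or RPMI with 10% FBS were plated in 1536-well plates, held 24 hours at 37°C, 5% CO2, then given two-drug dose matrices for 72 hours (DMSO typically 0.2%). Viability was read by CellTiter-Glo 2.0 luminescence and scaled as inhibition from 0 (vehicle wells) to 1 (blank wells). Combination Emax is the second-highest inhibition in the matrix; Bliss excess is observed combination effect minus expected EA + EB − EA·EB, EA and EB being single-agent effects.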

[1] = test system: Ca-Ski (Cervical Carcinoma); assay: as above
Summary of the method: as §1

[2] = test system: NCI-H1092 (Small Cell Lung Carcinoma); assay: combination Emax (second highest fraction inhibited in the dose matrix, 72 h); higher = more inhibition; extreme values may be limits of the assay
Summary of the method: as §1

[3] = test system: Ca-Ski (Cervical Carcinoma); assay: as above
Summary of the method: as §1

[4] = test system: ME-180 (Cervical Carcinoma); assay: as above
Summary of the method: as §1

[5] = test system: A4-Fuk (B-Lymphoblastic Leukemia); assay: as above
Summary of the method: as §1

[6] = test system: NCI-H522 (Lung Adenocarcinoma); assay: as above
Summary of the method: as §1

[7] = test system: SW872 (Other Solid Carcinomas); assay: as above
Summary of the method: as §1

[8] = test system: OACM5-1 (Esophageal Adenocarcinoma); assay: as above
Summary of the method: as §1

[9] = test system: ML-2 (Acute Myeloid Leukemia); assay: as above
Summary of the method: as §1

[10] = test system: ALL-SIL (T-Lymphoblastic Leukemia); assay: as above
Summary of the method: as §1

[11] = test system: MV-4-11 (Acute Myeloid Leukemia); assay: as above
Summary of the method: as §1

[12] = test system: DU-145 (Prostate Carcinoma); assay: as above
Summary of the method: as §1

[13] = test system: KOPN-8 (B-Lymphoblastic Leukemia); assay: as above
Summary of the method: as §1

[14] = test system: HCC2998 (Colorectal Carcinoma); assay: as above
Summary of the method: as §1

[15] = test system: EJM (Plasma Cell Myeloma); assay: as above
Summary of the method: as §1

SK-N-AS (Neuroblastoma) = assay: as above
Summary of the method: as §1

[16] = test system: CADO-ES1 (Ewing's Sarcoma); assay: as above
Summary of the method: as §1

[17] = test system: NCI-H650 (Lung Adenocarcinoma); assay: as above
Summary of the method: as §1

[18] = test system: NCI-H2122 (Lung Adenocarcinoma); assay: as above
Summary of the method: as §1
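Throughout, for Bliss excess, mean over the matrix: after 72 h of two-drug dosing.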

Row | Structure (SMILES) | Bliss excess (COLO-679 (Melanoma)) | Bliss excess [1] | combination Emax [2] | combination Emax [3] | combination Emax [4] | combination Emax [5] | combination Emax [6] | combination Emax [7] | combination Emax [8] | combination Emax [9] | combination Emax [10] | combination Emax [11] | combination Emax [12] | combination Emax [13] | combination Emax [14] | combination Emax [15] | combination Emax (SK-N-AS (Neuroblastoma)) | combination Emax [16] | combination Emax [17] | combination Emax [18]
1 | CN(CCO)CC[C@H](CSc1ccccc1)Nc1ccc(S(=O)(=O)NC(=O)c2ccc(N3CCC([C@@H](O)c4ccccc4-c4ccc(Cl)cc4)CC3)cc2)cc1S(=O)(=O)C(F)(F)F [AZD4320] + C=CCn1c(=O)c2cnc(Nc3ccc(N4CCN(C)CC4)cc3)nc2n1-c1cccc(C(C)(C)O)n1 [AZD1775] (first compound max 1 µM, partner max 1 µM) | -0.0078 | 0.0198 | 0.809 | 0.96 | 0.581 | 0.898 | 0.237 | 0.3 | 0.635 | 1 | 1 | 1 | 0.213 | 1 | 0.899 | 0.977 | 0.976 | 0.566 | 0.564 | 0.953
2 | CN(CCO)CC[C@H](CSc1ccccc1)Nc1ccc(S(=O)(=O)NC(=O)c2ccc(N3CCC([C@@H](O)c4ccccc4-c4ccc(Cl)cc4)CC3)cc2)cc1S(=O)(=O)C(F)(F)F [AZD4320] + CN(C)CCCOc1ccc(-c2ccc3ncc4c(c3c2)n(C2CCOCC2)c(=O)n4C)cn1 [AZD0156] (first compound max 1 µM, 7x7, partner max 1 µM) | -0.068 | -0.0173 | 0.862 | 0.268 | 0.246 | 0.476 | 0.0875 | 0.148 | 0.433 | 0.963 | 1 | 1 | 0.0779 | 0.898 | 0.554 | 0.162 | 0.109 | 0.611 | 0.203 | 0.24
3 | COc1nnc2ccc(N3CCC(c4ccc(OCCN5CCN(C)C(=O)[C@H]5C)cc4)CC3)nn12 [AZD5153] + C=CCn1c(=O)c2cnc(Nc3ccc(N4CCN(C)CC4)cc3)nc2n1-c1cccc(C(C)(C)O)n1 [AZD1775] (first compound max 1 µM, partner max 1 µM) | -0.042 | 0.0125 | 0.684 | 0.791 | 0.68 | 0.967 | 0.51 | 0.593 | 0.869 | 1 | 0.98 | 1 | 0.316 | 1 | 0.92 | 0.867 | 0.669 | 0.387 | 0.487 | 0.993
4 | COc1nnc2ccc(N3CCC(c4ccc(OCCN5CCN(C)C(=O)[C@H]5C)cc4)CC3)nn12 [AZD5153] + CC1(C)CCC(CN2CCN(c3ccc(C(=O)NS(=O)(=O)c4ccc(NCC5CCOCC5)c([N+](=O)[O-])c4)c(Oc4cnc5[nH]ccc5c4)c3)CC2)=C(c2ccc(Cl)cc2)C1 [Venetoclax] (first compound max 1 µM, 7x7, partner max 1 µM) | -0.0818 | -0.095 | 0.478 | 0.616 | 0.49 | 0.871 | 0.415 | 0.561 | 0.607 | 1 | 0.956 | 1 | 0.288 | 1 | 0.685 | 0.543 | 0.415 | 0.665 | 0.381 | 0.78
5 | COc1nnc2ccc(N3CCC(c4ccc(OCCN5CCN(C)C(=O)[C@H]5C)cc4)CC3)nn12 [AZD5153] + CCN(CCO)CCCOc1ccc2c(Nc3cc(CC(=O)Nc4cccc(F)c4)[nH]n3)ncnc2c1 [AZD2811] (first compound max 1 µM, 7x7, partner max 1 µM) | -0.0181 | -0.0238 | 0.374 | 0.591 | 0.524 | 0.893 | 0.344 | 0.578 | 0.734 | 1 | 1 | 1 | 0.265 | 0.996 | 0.752 | 0.613 | 0.447 | 0.248 | 0.443 | 0.853
6 | COc1nnc2ccc(N3CCC(c4ccc(OCCN5CCN(C)C(=O)[C@H]5C)cc4)CC3)nn12 [AZD5153] + C[C@@H]1COCCN1C2=NC(=NC(=C2)C3(CC3)[S@](=N)(=O)C)C4=C5C=CNC5=NC=C4 [AZD6738] (first compound max 1 µM, 7x7, partner max 10 µM) | 0.0003 | 0.0406 | 0.523 | 0.794 | 0.696 | 0.882 | 0.565 | 0.634 | 0.886 | 1 | 1 | 1 | 0.447 | 1 | 0.926 | 0.867 | 0.716 | 0.88 | 0.51 | 0.981
7 | COc1nnc2ccc(N3CCC(c4ccc(OCCN5CCN(C)C(=O)[C@H]5C)cc4)CC3)nn12 [AZD5153] + Cc1c2c(nn1C)CSCc1cc(n(C)n1)CSc1cc(c3ccccc3c1)OCCCc1c(C(=O)O)n(C)c3c-2c(Cl)ccc13 [AZD5991] (first compound max 1 µM, 7x7, partner max 1 µM) | -0.0101 | 0.0415 | 0.865 | 0.835 | 0.438 | 1 | 0.942 | 0.697 | 0.952 | 1 | 0.984 | 1 | 0.242 | 1 | 1 | 0.89 | 0.739 | 0.659 | 0.768 | 0.913
8 | COc1nnc2ccc(N3CCC(c4ccc(OCCN5CCN(C)C(=O)[C@H]5C)cc4)CC3)nn12 [AZD5153] + Cn1cnc2c(F)c(Nc3ccc(Br)cc3Cl)c(C(=O)NOCCO)cc21 [Selumetinib] (first compound max 1 µM, 7x7, partner max 10 µM) | -0.004 | 0.0324 | 0.192 | 0.813 | 0.592 | 0.934 | 0.469 | 0.784 | 0.663 | 1 | 0.778 | 1 | 0.28 | 1 | 0.95 | 0.619 | 0.663 | 0.444 | 0.656 | 1
9 | Cc1c2c(nn1C)CSCc1cc(n(C)n1)CSc1cc(c3ccccc3c1)OCCCc1c(C(=O)O)n(C)c3c-2c(Cl)ccc13 [AZD5991] + C1CN(CCC1(C(=O)N[C@@H](CCO)C2=CC=C(C=C2)Cl)N)C3=NC=NC4=C3C=CN4 [Capivasertib] (first compound max 1 µM, 7x7, partner max 3 µM) | -0.0179 | 0.0269 | 0.534 | 0.609 | 0.517 | 1 | 0.507 | 0.282 | 0.969 | 1 | 1 | 1 | 0.187 | 0.901 | 0.902 | 0.977 | 0.692 | 0.927 | 0.209 | 0.608
10 | Cc1c2c(nn1C)CSCc1cc(n(C)n1)CSc1cc(c3ccccc3c1)OCCCc1c(C(=O)O)n(C)c3c-2c(Cl)ccc13 [AZD5991] + C=CCn1c(=O)c2cnc(Nc3ccc(N4CCN(C)CC4)cc3)nc2n1-c1cccc(C(C)(C)O)n1 [AZD1775] (first compound max 1 µM, partner max 1 µM) | 0.0628 | -0.0012 | 0.696 | 0.816 | 0.52 | 1 | 0.516 | 0.374 | 0.928 | 1 | 1 | 1 | 0.373 | 0.998 | 0.962 | 1 | 0.964 | 0.925 | 0.748 | 0.979
11 | Cc1c2c(nn1C)CSCc1cc(n(C)n1)CSc1cc(c3ccccc3c1)OCCCc1c(C(=O)O)n(C)c3c-2c(Cl)ccc13 [AZD5991] + CC1(C)CCC(CN2CCN(c3ccc(C(=O)NS(=O)(=O)c4ccc(NCC5CCOCC5)c([N+](=O)[O-])c4)c(Oc4cnc5[nH]ccc5c4)c3)CC2)=C(c2ccc(Cl)cc2)C1 [Venetoclax] (first compound max 1 µM, 7x7, partner max 1 µM) | -0.0218 | 0.0006 | 0.989 | 0.682 | 0.286 | 1 | 0.443 | 0.312 | 0.917 | 1 | 1 | 1 | 0.149 | 0.936 | 0.893 | 0.959 | 0.871 | 0.911 | 0.329 | 0.823
12 | Cc1c2c(nn1C)CSCc1cc(n(C)n1)CSc1cc(c3ccccc3c1)OCCCc1c(C(=O)O)n(C)c3c-2c(Cl)ccc13 [AZD5991] + CCN(CCO)CCCOc1ccc2c(Nc3cc(CC(=O)Nc4cccc(F)c4)[nH]n3)ncnc2c1 [AZD2811] (first compound max 1 µM, 7x7, partner max 1 µM) | 0.0115 | 0.0869 | 0.626 | 0.7 | 0.343 | 1 | 0.657 | 0.249 | 0.946 | 1 | 1 | 1 | 0.23 | 0.983 | 0.94 | 0.949 | 0.808 | 0.908 | 0.61 | 0.883
